One test has as its system 6H5L_Top. Nature of the test: retro-aldol fluorescence assay. The format is biochemical, synthetic construct. As to conditions: 50 mM sodium phosphate, 150 mM NaCl, 7.5% DMSO, pH 8, 29 °C.
Test [1] relates to 6H5L. As to conditions: 6H5L_K223; 50 mM sodium phosphate, 150 mM NaCl, 7.5% DMSO, pH 8, 29 °C.
The test system of test [2] is 6H5L. Nature of the test: retro-aldol fluorescence assay. Type of test: biochemical, synthetic construct. As to conditions: 50 mM sodium phosphate, 150 mM NaCl, 7.5% DMSO, pH 8, 29 °C.
The subject of another test is 6H5L_RA2. Nature of the test: retro-aldol fluorescence assay. As to conditions: 50 mM sodium phosphate, 150 mM NaCl, 7.5% DMSO, pH 8, 29 °C. Type of test: biochemical, synthetic construct.
The subject of another test is 6H5L_RA1. The test can be described thus: retro-aldol fluorescence assay. Type of test: biochemical, synthetic construct. As to conditions: 50 mM sodium phosphate, 150 mM NaCl, 7.5% DMSO, pH 8, 29 °C.

The structures appear in SMILES notation. Like-named read-outs stand apart in the source and are kept apart here.

As for `COc1ccc2cc(C(O)CC(C)=O)ccc2c1` (racemic) [compound 3, 4-hydroxy-4-(6-methoxy-2-naphthyl)-2-butanone], the Km was found to be 453 ± 49.3 µM with 6H5L_Top; 967 ± 211 µM in the test on 6H5L [1]; 371 ± 62 µM in the test with 6H5L [2]; 1550 ± 225 µM in the test with 6H5L_RA2; 1040 ± 128 µM in the test on 6H5L_RA1.

What is called Km is the concentration of substrate that gives half-maximal velocity.

The values are drawn from doi:10.1101/2024.10.07.617055v4 (biorxiv, 2026).
